In ChEMBL document CHEMBL1201862, “PubChem BioAssay data set” (2004):
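Briefly, cells in 96-well plates were exposed to five compound concentrations for 48 h, and endpoints were estimated by linear interpolation. GI50 marks 50% less growth.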 Active and inactive are the calls of the source. Rule as the data show it: active = GI50 up to about 1.1 µM and inactive = higher.

How the values were obtained:
Assay in all cases: growth of human tumour cells (NCI), 48 h
NCI-H23 = test system: NCI-H23
HOP-92 = test system: HOP-92
SK-OV-3 = test system: SK-OV-3
HL-60 = test system: HL-60
CAKI-1 = test system: CAKI-1
UACC-257 = test system: UACC-257
MDA-MB-435 = test system: MDA-MB-435
HCT-15 = test system: HCT-15
SR = test system: SR
PC-3 = test system: PC-3
HT-29 = test system: HT-29
BT-549 = test system: BT-549
CCRF-CEM = test system: CCRF-CEM
A498 = test system: A498
T47D = test system: T47D
NCI-H226 = test system: NCI-H226
IGROV-1 = test system: IGROV-1
COLO 205 = test system: COLO 205
DU-145 = test system: DU-145
LOX IMVI = test system: LOX IMVI
K562 = test system: K562
MDA-N = test system: MDA-N
OVCAR-5 = test system: OVCAR-5
SK-MEL-5 = test system: SK-MEL-5
RXF 393 = test system: RXF 393
EKVX = test system: EKVX
OVCAR-3 = test system: OVCAR-3
UO-31 = test system: UO-31
M14 = test system: M14
SN12C = test system: SN12C
MCF7 = test system: MCF7
MOLT-4 = test system: MOLT-4
RPMI-8226 = test system: RPMI-8226
NCI/ADR-RES = test system: NCI/ADR-RES
UACC-62 = test system: UACC-62
SF-539 = test system: SF-539
HCT-116 = test system: HCT-116
SW-620 = test system: SW-620
SNB-75 = test system: SNB-75
SF-295 = test system: SF-295
NCI-H460 = test system: NCI-H460
NCI-H522 = test system: NCI-H522
OVCAR-8 = test system: OVCAR-8
786-0 = test system: 786-0
KM12 = test system: KM12
SF-268 = test system: SF-268
HOP-62 = test system: HOP-62
Malme-3M = test system: Malme-3M
ACHN = test system: ACHN
TK-10 = test system: TK-10
SNB-19 = test system: SNB-19
A549 = test system: A549
OVCAR-4 = test system: OVCAR-4
SK-MEL-2 = test system: SK-MEL-2
Hs-578T = test system: Hs-578T
U-251 = test system: U-251
MDA-MB-231 = test system: MDA-MB-231
SK-MEL-28 = test system: SK-MEL-28
HCC 2998 = test system: HCC 2998

`Cc1ccc(C2(N3CCOCC3)OC(C)(C)c3cccc4cccc2c34)cc1` (stereo not given) was tested, and the GI50 (NCI-H23) was 17.7 µM (inactive), the GI50 (HOP-92) was 11.9 µM (inactive) and the GI50 (SK-OV-3) was 16.7 µM (inactive). For the same molecule, the GI50 (HL-60) was 34.9 µM (inactive), the GI50 (CAKI-1) was 18.2 µM (inactive) and the GI50 (UACC-257) was 18 µM (inactive). For the same molecule, the GI50 (MDA-MB-435) was 16.9 µM (inactive), the GI50 (HCT-15) was 17 µM and the GI50 (SR) was 35.1 µM (inactive). For the same molecule, the GI50 (PC-3) was 16.5 µM (inactive), the GI50 (HT-29) was 15.5 µM (inactive) and the GI50 (BT-549) was 17.3 µM (inactive). For the same molecule, the GI50 (CCRF-CEM) was 22.6 µM (inactive), the GI50 (A498) was 17.7 µM (inactive) and the GI50 (T47D) was 21.7 µM (inactive). The GI50 (NCI-H226) was 17.1 µM (inactive), the GI50 (IGROV-1) was 17.9 µM (inactive) and the GI50 (COLO 205) was 15.9 µM (inactive). The GI50 (DU-145) was 18 µM (inactive), the GI50 (LOX IMVI) was 16.5 µM (inactive) and the GI50 (K562) was 30.2 µM (inactive). The GI50 (MDA-N) was 17.9 µM (inactive), the GI50 (OVCAR-5) was 15.8 µM (inactive) and the GI50 (SK-MEL-5) was 18.6 µM (inactive). For the same molecule, the GI50 (RXF 393) was 15.3 µM (inactive), the GI50 (EKVX) was 13 µM (inactive) and the GI50 (OVCAR-3) was 16 µM (inactive). For the same molecule, the GI50 (UO-31) was 16.9 µM (inactive), the GI50 (M14) was 16.8 µM (inactive) and the GI50 (SN12C) was 16.9 µM (inactive). For the same molecule, the GI50 (MCF7) was 16 µM (inactive), the GI50 (MOLT-4) was 41.5 µM (inactive) and the GI50 (RPMI-8226) was 16.2 µM (inactive). The GI50 (NCI/ADR-RES) was 15.7 µM (inactive), the GI50 (UACC-62) was 13.6 µM (inactive) and the GI50 (SF-539) was 17.9 µM (inactive). The GI50 (HCT-116) was 17.1 µM (inactive), the GI50 (SW-620) was 18.2 µM (inactive) and the GI50 (SNB-75) was 15.4 µM (inactive). The GI50 (SF-295) was 16.9 µM (inactive), the GI50 (NCI-H460) was 14.5 µM (inactive) and the GI50 (NCI-H522) was 15.8 µM (inactive). The GI50 (OVCAR-8) was 16.9 µM (inactive), the GI50 (786-0) was 17.3 µM (inactive) and the GI50 (KM12) was 21.1 µM (inactive). For the same molecule, the GI50 (SF-268) was 14.4 µM (inactive), the GI50 (HOP-62) was 15.7 µM (inactive) and the GI50 (Malme-3M) was 16.8 µM (inactive). For the same molecule, the GI50 (ACHN) was 16.3 µM (inactive), the GI50 (TK-10) was 17.3 µM (inactive) and the GI50 (SNB-19) was 17.6 µM (inactive). For the same molecule, the GI50 (A549) was 12.9 µM (inactive), the GI50 (OVCAR-4) was 15.9 µM (inactive) and the GI50 (SK-MEL-2) was 15.6 µM (inactive). For the same molecule, the GI50 (Hs-578T) was 20.9 µM (inactive) and the GI50 (U-251) was 16.5 µM (inactive).
With `O=C(O)CCNC(=O)c1cc(N(CCBr)CCBr)c([N+](=O)[O-])cc1[N+](=O)[O-]` the GI50 (NCI-H23) was > 100 µM (inactive), the GI50 (HOP-92) was > 100 µM (inactive) and the GI50 (SK-OV-3) was > 100 µM (inactive). The GI50 (HL-60) was > 100 µM (inactive), the GI50 (CAKI-1) was > 100 µM (inactive) and the GI50 (UACC-257) was > 100 µM (inactive). For the same molecule, the GI50 (MDA-MB-435) was > 100 µM (inactive), the GI50 (HCT-15) was over 100 µM and the GI50 (SR) was > 100 µM (inactive). The GI50 (PC-3) was > 100 µM (inactive), the GI50 (MDA-MB-231) was > 100 µM (inactive) and the GI50 (HT-29) was > 100 µM (inactive). For the same molecule, the GI50 (BT-549) was > 100 µM (inactive), the GI50 (CCRF-CEM) was > 100 µM (inactive) and the GI50 (A498) was > 100 µM (inactive). For the same molecule, the GI50 (NCI-H226) was > 100 µM (inactive), the GI50 (IGROV-1) was > 100 µM (inactive) and the GI50 (COLO 205) was > 100 µM (inactive). For the same molecule, the GI50 (LOX IMVI) was > 100 µM (inactive), the GI50 (K562) was > 100 µM (inactive) and the GI50 (MDA-N) was > 100 µM (inactive). The GI50 (OVCAR-5) was > 100 µM (inactive), the GI50 (SK-MEL-5) was > 100 µM (inactive) and the GI50 (SK-MEL-28) was > 100 µM (inactive). The GI50 (EKVX) was > 100 µM (inactive), the GI50 (HCC 2998) was > 100 µM (inactive) and the GI50 (OVCAR-3) was > 100 µM (inactive). For the same molecule, the GI50 (UO-31) was > 100 µM (inactive), the GI50 (M14) was > 100 µM (inactive) and the GI50 (SN12C) was > 100 µM (inactive). For the same molecule, the GI50 (MCF7) was > 100 µM (inactive), the GI50 (MOLT-4) was > 100 µM (inactive) and the GI50 (RPMI-8226) was > 100 µM (inactive). The GI50 (NCI/ADR-RES) was > 100 µM (inactive), the GI50 (HCT-116) was > 100 µM (inactive) and the GI50 (SW-620) was > 100 µM (inactive). The GI50 (SNB-75) was > 100 µM (inactive), the GI50 (SF-295) was > 100 µM (inactive) and the GI50 (NCI-H460) was > 100 µM (inactive). The GI50 (NCI-H522) was > 100 µM (inactive), the GI50 (OVCAR-8) was > 100 µM (inactive) and the GI50 (786-0) was > 100 µM (inactive). For the same molecule, the GI50 (KM12) was > 100 µM (inactive), the GI50 (SF-268) was > 100 µM (inactive) and the GI50 (HOP-62) was > 100 µM (inactive). For the same molecule, the GI50 (Malme-3M) was > 100 µM (inactive), the GI50 (ACHN) was > 100 µM (inactive) and the GI50 (TK-10) was > 100 µM (inactive). For the same molecule, the GI50 (SNB-19) was > 100 µM (inactive), the GI50 (A549) was > 100 µM (inactive) and the GI50 (OVCAR-4) was > 100 µM (inactive). For the same molecule, the GI50 (SK-MEL-2) was > 100 µM (inactive), the GI50 (Hs-578T) was > 100 µM (inactive) and the GI50 (U-251) was > 100 µM (inactive).
